Experimental data reported in a melting point compilation (Tetko et al.; mined from patent text by program, amines drawn as free bases though some values may be those of a salt).

| SMILES | melting point [°C] |
| --- | --- |
| COc1ccccc1CCC(=O)Nc1sc2c(c1C#N)CCN(C(=O)OC(C)(C)C)C2 | 198 |
| O=C(OCCCCCCCCCCCCBr)C1CC1 | 29 to 31 |
| Cc1ccc(S(=O)(=O)C2SC(=O)N(C(c3ccccc3)(c3ccccc3)c3ccccc3)C2=O)cc1 (centres undefined) | 105 to 110 |
| CC(C)c1cccc(C(C)C)c1NC(=O)NCC1(Nc2ccc(-c3ccccc3)cc2)CCCC1 | 198 |
| O=C(Nc1ccc2c(c1)S(=O)(=O)NC1CCCN21)c1ccccc1 (centres undefined) | 293 |
| CCOCc1nc2c(N)nc(C)c(C)c2n1CC(C)C | 110 to 112 |
| CCOC(=O)Nc1nc(-c2ccccc2)c(-c2nc3ccccc3c(=O)n2-c2ccccc2Cl)s1 | 236 to 238 |
| CCOC(=Cc1ccc(-c2cccc(N(C)C(=O)NC3CCCCC3)c2)cc1)C(=O)O | 85 |
| COc1cccc(CCc2cc(C(C)(C)C)c(O)c(C(C)(C)C)c2)c1NC(=O)NC1CCN(Cc2ccccc2)CC1 | 184 to 185 |
| CN1Cc2ccccc2C(=O)c2cc(CC(=O)NO)ccc21 | 137 to 141 |
| CNC(=S)NS(=O)(=O)c1cc(CCNC(=O)C=Cc2cccs2)ccc1OCC1CCCCO1 (centres undefined) | 80 |
| Nc1nc(Cl)cc(NCC2(CO)CCC2)n1 | 192 to 194 |
| CN1CCN(c2c(F)cc3c(=O)c(C(=O)O)cn(-c4ccc(O)cc4)c3c2F)CC1 | > 300 |
| Cc1c(Sc2ccc(Cl)cc2)nn(-c2ccc(S(C)(=O)=O)cc2)c(=O)c1C#N | 199 to 201 |
| CCOC(=O)c1ccc(NC(=O)C=C2c3ccccc3CCc3ccccc32)cc1 | 178 to 180 |
| O=C1NC(=O)C2(CCCCC2)N1c1cccnc1 | 264 to 266 |
| COc1cc2c(cc1OC)C(COCCN1CCN(c3ccc(F)cc3)CC1)OCCC2 (centres undefined) | 114 |
| CCOC(OCC)c1cccc2c1Sc1ccccc1N2C | 44.6 to 46.2 |
| CCOC(=O)N(C)CC(N)=S | 91 to 93 |
| CCOC(=O)C1C2OC3COC(C)(C)OC3C(OC)C21 (centres undefined) | 65 to 68 |
| O=C(c1ccccc1)N(CCCn1cncn1)C1=Nc2cccc3cccc1c23 | 140 to 141 |
| NC(=O)c1ccc(OCC(O)CCCl)cc1 (centres undefined) | 150 to 153 |
| Cc1ncc(C#N)c(Nc2ccc3[nH]ccc3c2C)c1I | 222 to 223 |
| CCCCCCCCCCCCCCCCOC(=O)NCCN1CCCCC1 | 48 |
| CCOC(=O)CCC(=O)c1cc(-c2ccccc2)nc2ccccc12 | 66 |

| SMILES | melting point [°C] |
| --- | --- |
| O=C(N[C@H]1CC[C@H](CCN2CCN(c3nccc4c3OCC4)CC2)CC1)c1ccc(F)cc1 | 236 |
| O=c1oc(-c2ccccc2F)nc2c(Cl)ccc(Cl)c12 | 140 |
| CCc1cc2c(NC(C)c3ccccc3)ncnc2s1 (centres undefined) | 141 |
| CCCCCCCCNC(=O)Nc1nc2nc(NCCCN3CCN(C)CC3)ncc2cc1-c1c(Cl)cccc1Cl | 54.5 to 57.5 |
| COC(C)(C)C(=O)Nc1ccc(Sc2nc(C)cc(C)n2)cc1 | 123 to 125 |
| CCc1ccc(-c2ccc3c(c2)C=C(C(=O)O)CCS3(=O)=O)cc1 | 260 to 265 |
| Cn1cc(C(=O)c2ccc(Cl)cc2)cc1C(=O)c1ccc(Cl)nc1 | 150 to 152 |
| CN1CS(=O)c2cccc(Cl)c21 (centres undefined) | 130 to 132 |
| Cc1ccc(C2(O)c3ccccc3C(=O)c3ccccc32)cc1 | 203 to 209 |
| O=C1C(Cl)=C(c2ccccc2)C(=O)N1Nc1ccc(F)cc1 | 115 to 117 |
| OC1(c2ccccc2)CCN(CCc2c[nH]c3ccccc23)CC1 | 133 to 137 |
| CCCCCCCCCCCCCCCCOC(=O)c1cccc(N)c1 | 52 to 53 |
| COCCOCCN1C(=O)C2(COc3cc4c(cc32)OCCO4)c2c(OC)ccc(OC)c21 (centres undefined) | 109 to 110 |
| CS(=O)(=O)CC(=O)N[C@H]1CC[C@H](CCN2CCN(c3nccc4c3CCO4)CC2)CC1 | 260 |
| CC[C@H](CCC(=O)OC(C)(C)C)C(=O)N[C@@H](Cc1ccccc1)C(=O)OC | 120 to 121 |
| COCOc1c(Cl)ccc(-c2cc(NC(C)=O)c(Cl)c(C(=O)OC)n2)c1F | 146 |
| COc1cc(N2CCN(C[C@H](C)O)CC2)c(F)cc1Nc1ncc2ccc(-c3ccccc3N(C)S(C)(=O)=O)n2n1 | 116 to 120 |
| O=CC1CC1Nc1nccc(-n2nnc3ccccc32)n1 (centres undefined) | 99 to 100 |
| Cc1ccc2cccnc2c1C(=O)Nc1nnn[nH]1 | 285 to 287 |
| CC(C)(C)c1csc(COc2cccc(C(=O)Nc3cc(CCCS(=O)(=O)c4ccc(Cl)cc4)ccc3OCC(N)=O)c2)n1 | 147 to 148 |
| CC(=C=CC(C)(C)c1ccc(Cl)cc1)C(=O)O | 106 to 108 |
| Clc1ccccc1C1=NOC(c2ccccc2Cl)N1 (centres undefined) | 75 to 78 |
| CC(C)(C)OC(=O)NCc1cc(C(C)(C)C)cc(Cl)c1O | 161 to 163 |
| COc1cc(N)ccc1CN1C(=O)C(C)(c2ccccc2Cl)c2cc(Cl)ccc21 (centres undefined) | 232 |
| COC(=O)c1ccc(Cn2cc(C=C3C(=O)NC(=O)NC3=O)c3ccccc32)cc1 | > 300 |

| SMILES | melting point [°C] |
| --- | --- |
| O=C1NCCC[C@@H]1NS(=O)(=O)c1ccc(C(F)(F)F)cc1 | 181 to 183 |
| CON=C(c1cc(C)no1)c1ccccc1COc1cc(C)ccc1C | 107 to 108 |
| Cn1nc(Br)c([N+](=O)[O-])c1NCc1ccccc1 | 133 |
| CNC(=O)c1sc(C(C)(C)C)cc1N | 230 to 231 |
| COc1ccc(OC)c(-c2cn(N)c(N)n2)c1 | 159 to 160 |
| O=C(Nc1ccc(Cl)c(Cl)c1)c1cc(Br)ccc1O | 249 to 251 |
| CCOC1(C)OCC(O)O1 (centres undefined) | 86 to 87 |
| CN1N=C(c2ccc(F)cc2)c2ccc(Cl)cc2CS1(=O)=O | 250 to 251 |
| CCOC(=O)c1[nH]c2c(c1C)CC1CN(CC)CCC1(c1cccc(O)c1)C2 (centres undefined) | 195 to 197 |
| COc1cc2c(cc1OC)C(Cc1cc(I)c(I)c(I)c1)N(C(=O)C(F)(F)F)CC2 (centres undefined) | 215 to 216 |
| O=C(CNCc1ccccc1)CP(=O)(O)C(Cl)(Cl)Cl | 194 to 195 |
| Cc1cn(C2CC(OP(N)O)C(CO[Si](C)(C)C(C)(C)C)O2)c(=O)[nH]c1=O (centres undefined) | 68 to 70 |
| COc1ccc(COc2cc3c(cc2-c2cc(C=CC(=O)O)ccc2O)C(C)(C)CCC3(C)C)cc1 | 170 to 172 |
| CC(=O)CCCn1c(C)nc2c(N)nc3ccccc3c21 | 194 to 196 |
| COc1cc(Nc2c(C#N)cnc3cc(-c4ccc(CN5CCN(C)CC5)s4)ccc23)c(Cl)cc1Cl | 206 to 208 |
| NC(=O)c1ccc(-c2cnc3[nH]c(=O)n(CC4CCOCC4)c3n2)cc1 | 273 to 275 |
| Cc1ccccc1-c1cc(N2CCOCC2)ncc1N(C)C(=O)C(C)(C)c1cc(C(F)(F)F)cc(C(F)(F)F)c1 | 129 to 130 |
| CCc1nn2c(-c3ccc(Cl)cc3Cl)nc(C)nc2c1C(CC)CC | 91 to 93 |
| COc1ccc2nc(-c3ccc4c(c3)NC(=O)C4(C)C)[nH]c2c1 | 85 to 90 |
| COc1cc(I)c(Cl)cc1C(=O)N1Cc2cccn2Cc2ccccc21 | 92 to 98 |
| Cc1cc(N)n(-c2ccc(Cl)c(Cl)c2)n1 | 110 to 112 |
| COC(=O)CNc1ccc(OCc2ccccc2)cc1 | 106 to 107 |
| COc1ccc(C2Nc3ccc(Cl)cc3C(C#CC3CC3)(C(F)(F)F)O2)cc1 (centres undefined) | 130 to 132 |
| c1ccc(Sc2cc(-c3ccccc3)n[nH]2)cc1 | 99 to 100 |
| O=C(O)c1ccc(Sc2ccc(O)cc2)cc1 | 196 to 200 |

| SMILES | melting point [°C] |
| --- | --- |
| CC1=NN(c2cccc(C(=O)O)c2)C(=O)C1=c1[nH]c(=c2[nH]c(=C3C(=O)N(c4cccc(C(=O)O)c4)N=C3C)c3ccccc23)c2ccccc12 | > 300 |
| COc1cccc2c(CC(=O)O)coc12 | 143 to 145 |
| COc1ccc2c(c1)C(=O)N(c1cc3ccn(C)c3cn1)C2 | 205 to 210 |
| CCCOc1ccccc1Nc1ncc(C(=O)O)c(=O)[nH]1 | 202 to 204 |
| CCCc1ccnc(C(=O)c2[nH]c3ccc(Cl)cc3c2CC(=O)O)c1 | 208 to 209 |
| CCOC(=O)N1C=CC(c2c(-c3ccccc3)nc3ccc(Cl)nn23)C=N1 (centres undefined) | 126 to 131 |
| COc1ccccc1C1(Cc2ccccc2)C(=O)N(C)c2ccccc21 (centres undefined) | 174 to 176 |
| COC(=O)c1ccc(-c2ccccc2)cc1S(=O)(=O)NC(=O)Nc1nc(OC)cc(OC)n1 | 204 to 206 |
| CCCCCC(=O)OCC(CCn1cnc2c(=O)[nH]c(N)nc21)COC(=O)CCCCC | 198 |
| CC(C)(c1ccccc1)C(n1ccnc1)S(=O)c1ccc(Cl)cc1 (centres undefined) | 125 to 127 |
| O=C1CCCC2=C1C(c1ccc(F)c(Br)c1)C1=C(CCCC1)N2 (centres undefined) | 254 to 257 |
| COc1ccc(C=CC(=O)c2ccc(O)cc2)c(OC)c1 | 165 to 166 |
| COC(=S)NCc1cn(-c2cc(F)c(N3CCC(=O)CC3)c(F)c2)nn1 | 175 to 176 |
| NCCc1cc(Cl)c(NC(=O)CN2CCN(CCCCC(c3ccc(F)cc3)c3ccc(F)cc3)CC2C(N)=O)c(Cl)c1 (centres undefined) | 161 |
| COc1cc(N)c(Cl)cc1C(=O)NC1CCN(C(C)CC(C(=O)N(C)C)(c2ccccc2)c2ccccc2)CC1OC (centres undefined) | 198 |
| Nc1ccc(/C=C/C(=O)CC(=O)/C=C/c2ccc(O)cc2)cc1 | 212 to 217 |
| O=C(O)c1cc(Br)c(Cl)s1 | > 200 |
| NC(=O)c1cccc2c1CC(N(CCCc1c[nH]c3ccc(F)cc13)C1CCC1)CO2 (centres undefined) | 102 to 105 |
| COc1ccc(C(=O)c2ccc(NC(C)=O)cc2)cc1 | 160 to 162 |
| N#Cc1cccc(NC(=O)n2ccnc2)c1 | 174 to 176 |
| CC(C)c1cccc(C(C)C)c1NC(=O)CNC(c1ccc(F)cc1)c1ccc(F)cc1 | 150 to 151 |
| CN1CC(CCN2CCN(c3ncccn3)CC2)c2nc3ccccc3n2C1=O (centres undefined) | 161 to 162 |
| CCn1cc(C#Cc2cccc(OC)c2)cc1C(=O)O | 129 |
| CC(=O)OCC1=C(C(=O)OC(C)(C)C)N2C(=O)C(NC(=O)Cn3ccnc3S(C)(=O)=O)C2SC1 (centres undefined) | 164 |
